Series [1] relates to locomotor activity in mice. Nature of the series: Locomotor activity in mice, open field (Digiscan activity monitor). In kind it is in vivo, mouse. The following applies: for locomotor stimulation, in words: mice.
Experimental: Adult male mice of the NIH (Swiss) strain weighing 25-30 g were housed in groups of 10 animals per cage with a light-dark cycle of 12:12 h. The animals were given free access to standard pellet food and water and were acclimatized to laboratory conditions for 24 h prior to testing. Each animal was used only once in the activity monitor.
Locomotor activity of individual animals was studied in an open field using a Digiscan activity monitor (Omnitech Electronics Inc., Columbus, Ohio) equipped with an IBM-compatible computer. The computer-tabulated measurements represent multivariate locomotor analysis with specific measures, such as simultaneous measurements of ambulatory, rearing, stereotypical, and rotational behaviors. Data were collected in the morning, for three consecutive intervals of 10 minutes each, and analyzed separately and as a group. Statistical analysis was performed using the Student t test. […] Drugs were administered i.p. in a volume corresponding to 5 ml/kg body weight. Where applicable, the antagonist was injected 10 minutes before the agonist. ED50 values were determined using regression analysis on the InPlot software (GraphPAD, San Diego, Calif.).
For series [2], the system named is locomotor activity. To be noted: i.p., previously determined; cited from earlier work.
Series [3] has as its target T1, rat A1 cortical receptors (Rattus norvegicus, UniProt P25099).
T1 construct: Rat cerebral cortical membranes and striatal membranes were prepared; from tissue; host or cells: rat cerebral cortex membranes
T1 sequence (P25099 1-326): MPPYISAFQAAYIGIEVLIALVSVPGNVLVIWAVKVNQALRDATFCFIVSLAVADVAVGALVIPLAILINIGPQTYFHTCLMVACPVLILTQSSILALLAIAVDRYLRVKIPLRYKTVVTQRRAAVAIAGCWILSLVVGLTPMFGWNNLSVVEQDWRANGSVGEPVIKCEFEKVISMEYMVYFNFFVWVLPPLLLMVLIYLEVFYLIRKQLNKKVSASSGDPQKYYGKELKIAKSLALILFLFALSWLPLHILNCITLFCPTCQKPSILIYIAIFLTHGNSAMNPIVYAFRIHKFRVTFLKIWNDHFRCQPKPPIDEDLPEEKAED
As to the kind of experiment: Radioligand binding, [3H]N6-phenylisopropyladenosine ([3H]PIA), rat cortical A1 receptors.
Experimental: (§1) The 1,3,7-trialkyl-8-substituted xanthine compounds of the present invention were tested in a radioligand binding assay for affinity at adenosine receptors in rat brain membranes.
The final concentration of DMSO in the assay medium was generally 2%.
Membranes (~100 μg protein per tube) were incubated for 1.5 h at 37° C. in a total volume of 0.5 ml of 50 mM Tris hydrochloride, at pH 7.4. Test drugs were dissolved in DMSO and added in 10 μl aliquots, resulting in a final DMSO concentration of 2%. Bound and free radioligand were separated by addition of 3 ml of a buffer containing 50 mM Tris hydrochloride, pH 7.4, at 5° C., followed by vacuum filtration using a Brandel Cell Harvester (Brandel, Gaithersburg, Md.) and a Whatman GF/B glass fiber filter with additional washes totaling 9 ml of buffer. Non-specific binding was determined with 10 μM 2-chloroadenosine.
(§2) At least six different concentrations spanning three orders of magnitude, adjusted appropriately for the IC50 of each compound, were used.

A short description of series [4]: Aqueous solubility. The following applies: for solubility kinetic: water, 0.5% dmso, organic solvent or mixture.
Experimental: To avoid precipitation associated with serial aqueous dilutions, the only point at which DMSO was added to aqueous medium was immediately prior to the incubation.
The target of series [5] is T2, rat striatal A2a receptors (Rattus norvegicus, UniProt P30543). As to the kind of experiment: Radioligand binding, [3H]CGS 21680, rat striatal A2a receptors. On the set-up: Rat cerebral cortical membranes and striatal membranes were prepared; from tissue; host or cells: rat striatal membranes. To be noted: for A1/A2a ratio: ratio of Ki values.
T2 sequence (P30543 whole entry): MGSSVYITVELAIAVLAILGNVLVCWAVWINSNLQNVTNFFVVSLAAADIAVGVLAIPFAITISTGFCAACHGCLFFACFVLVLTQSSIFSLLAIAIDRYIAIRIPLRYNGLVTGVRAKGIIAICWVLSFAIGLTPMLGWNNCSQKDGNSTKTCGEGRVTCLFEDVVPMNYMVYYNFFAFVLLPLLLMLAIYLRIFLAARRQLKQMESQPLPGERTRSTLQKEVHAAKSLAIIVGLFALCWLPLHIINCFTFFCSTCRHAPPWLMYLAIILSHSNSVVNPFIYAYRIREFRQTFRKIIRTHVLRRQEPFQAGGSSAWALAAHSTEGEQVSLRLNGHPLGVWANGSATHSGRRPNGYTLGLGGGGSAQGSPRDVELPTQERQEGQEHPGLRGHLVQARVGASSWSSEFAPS
Experimental: as §1
The stock solutions were diluted with DMSO to a concentration of ≥0.1 mM prior to adding to the aqueous medium. The final concentration of DMSO in the assay medium was generally 2%.
Test drugs were dissolved in DMSO and added in 10 μl aliquots, resulting in a final DMSO concentration of 2%. Non-specific binding was defined using 20 μM 2-chloroadenosine. Filtration was carried out using a Brandel Cell Harvester, as above, using Tris HCl/MgCl2 as the washing buffer.
as §2
The target of series [6] is T3, A1 receptors, rat striatum (Rattus norvegicus, UniProt P25099).
T3 construct: Striatal tissue was isolated by dissection of rabbit, bovine, and rat brain; tissue Pel-Freeze Biologicals Co; host or cells: rat striatal membranes (frozen brain)
T3 sequence (P25099 1-326): T1 sequence (P25099 1-326)
Nature of the series: Competition binding vs [3H]PIA, rat striatal membranes.

Series [7] addresses T4, A1 receptors, guinea pig striatum (Cavia porcellus, UniProt P47745).
T4 construct: guinea pig, bovine, and rabbit striatal membranes; tissue Keystone Biologicals; host or cells: guinea pig striatal membranes (frozen brain)
As to the kind of experiment: Competition binding vs [3H]PIA, guinea pig striatal membranes.

Series [8] concerns the target T5, A1 receptors, bovine striatum (Bos taurus, UniProt P28190).
T5 construct: Striatal tissue was isolated by dissection of rabbit, bovine, and rat brain; tissue Pel-Freeze Biologicals Co; host or cells: bovine striatal membranes (frozen brain)
Nature of the series: Competition binding vs [3H]PIA, bovine striatal membranes.

In series [9] the target is T6, A1 receptors, rabbit striatum (Oryctolagus cuniculus, UniProt P34970).
T6 construct: Striatal tissue was isolated by dissection of rabbit, bovine, and rat brain; tissue Pel-Freeze Biologicals Co; host or cells: rabbit striatal membranes (frozen brain)
T6 sequence (P34970 whole entry): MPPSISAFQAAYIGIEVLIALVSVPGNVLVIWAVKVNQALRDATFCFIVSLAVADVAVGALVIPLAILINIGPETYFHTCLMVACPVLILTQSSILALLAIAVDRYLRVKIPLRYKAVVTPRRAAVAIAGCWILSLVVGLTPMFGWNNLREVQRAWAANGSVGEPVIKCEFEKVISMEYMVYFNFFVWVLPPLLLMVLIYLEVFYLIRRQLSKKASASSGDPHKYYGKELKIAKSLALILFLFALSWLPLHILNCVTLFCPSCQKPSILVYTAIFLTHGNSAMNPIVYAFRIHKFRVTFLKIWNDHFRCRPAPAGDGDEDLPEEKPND
As to the kind of experiment: Competition binding vs [3H]PIA, rabbit striatal membranes.

Series [10] relates to A1 receptors, rat striatal membranes. As to the kind of experiment: Irreversible inhibition after preincubation and washing, [3H]PIA, rat striatal membranes. In kind it is binding. The following applies: preincubation with 20 μM ISC, 60 min. The protocol: Striatal membranes were treated with inhibitor as follows.
Series [11] concerns the target T7, A2a receptors, rat striatum (Rattus norvegicus, UniProt P30543). To be noted: four species (rat, guinea pig, bovine, rabbit).
The target of series [12] is T2, rat striatal A2a receptors.
In series [13] the target is T7, A2a receptors, rat striatum. As to the kind of experiment: biochemical.
Series [14] concerns the target A2a receptors, bovine striatum (Bos taurus, UniProt E1BKU0). Nature of the series: biochemical.
The target of series [15] is A2a receptors, rabbit striatum (Oryctolagus cuniculus, UniProt G1SVQ2). Nature of the series: biochemical.
Sequence of A2a receptors, rabbit striatum (G1SVQ2 1-409): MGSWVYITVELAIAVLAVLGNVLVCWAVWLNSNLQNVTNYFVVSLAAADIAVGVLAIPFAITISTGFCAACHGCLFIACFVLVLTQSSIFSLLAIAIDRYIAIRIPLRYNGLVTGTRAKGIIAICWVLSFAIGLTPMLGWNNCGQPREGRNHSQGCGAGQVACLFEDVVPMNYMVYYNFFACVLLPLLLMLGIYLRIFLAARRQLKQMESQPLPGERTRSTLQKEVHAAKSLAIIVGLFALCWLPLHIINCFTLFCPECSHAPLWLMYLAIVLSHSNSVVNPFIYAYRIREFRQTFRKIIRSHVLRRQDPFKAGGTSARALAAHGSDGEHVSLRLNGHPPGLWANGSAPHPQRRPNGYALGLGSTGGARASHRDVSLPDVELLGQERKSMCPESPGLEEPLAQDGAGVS
Series [16] concerns the target T2, rat striatal A2a receptors. Nature of the series: biochemical.
The target of series [17] is bovine A2a receptors (Bos taurus, UniProt E1BKU0). Nature of the series: biochemical.
Sequence of bovine A2a receptors (E1BKU0 1-401): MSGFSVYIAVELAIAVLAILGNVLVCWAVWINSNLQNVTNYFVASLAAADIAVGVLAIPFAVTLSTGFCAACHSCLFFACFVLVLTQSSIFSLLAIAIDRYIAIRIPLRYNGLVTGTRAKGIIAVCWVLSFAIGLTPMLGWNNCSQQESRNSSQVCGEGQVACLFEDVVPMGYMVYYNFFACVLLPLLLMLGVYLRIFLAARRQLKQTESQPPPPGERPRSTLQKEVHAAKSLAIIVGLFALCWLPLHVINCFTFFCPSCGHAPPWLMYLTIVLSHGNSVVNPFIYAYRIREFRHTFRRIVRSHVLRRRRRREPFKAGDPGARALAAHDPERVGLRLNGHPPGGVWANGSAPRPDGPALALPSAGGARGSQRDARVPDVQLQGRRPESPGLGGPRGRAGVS
Series [18] deals with rabbit A2a receptors (Oryctolagus cuniculus, UniProt G1SVQ2). Nature of the series: biochemical.
Sequence of rabbit A2a receptors (G1SVQ2 1-409): as the sequence (G1SVQ2 1-409) above
Series [19] deals with A1 receptors, guinea pig brain. The following applies: vs [3H]CHA in guinea pig brain; read-out: Ki (A1), Shimada et al.; cited from earlier work.
Series [20] addresses A2 receptors, rat striatum. To be noted: vs [3H]NECA in rat striatum; read-out: Ki (A2a), Shimada et al.; cited from earlier work.
Setting [21] is: Table I, vs [3H]PIA (1 nM), rat A1 receptors, read-out: Ki (A1).
Setting [22] is: Ki value / affinity at A2 receptors.
Where [23] appears, read: Table I, vs [3H]CGS21680 (5 nM), rat striatal A2 receptors, read-out: Ki (A2a).

Each structure is given as a SMILES string. In brackets after ≈: the same amount, converted by molar mass. Several values for one entry are separate records, joined by “and”; a condition that tells them apart may be missing. Equal values may be shown once. Read-outs that look alike come from different tables or passages of the source. Some results are limits rather than exact numbers.

T7 sequence (P30543 whole entry): as the sequence (P30543 whole entry) above
T5 sequence (P28190 whole entry): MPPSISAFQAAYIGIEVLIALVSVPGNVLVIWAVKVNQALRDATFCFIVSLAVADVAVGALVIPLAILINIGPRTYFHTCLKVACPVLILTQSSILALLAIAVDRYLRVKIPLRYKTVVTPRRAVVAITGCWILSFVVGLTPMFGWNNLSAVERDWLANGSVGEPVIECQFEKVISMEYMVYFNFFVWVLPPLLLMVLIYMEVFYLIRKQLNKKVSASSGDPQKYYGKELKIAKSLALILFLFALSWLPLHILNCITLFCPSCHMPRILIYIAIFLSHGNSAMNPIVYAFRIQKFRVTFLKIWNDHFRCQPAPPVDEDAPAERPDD
T4 sequence (P47745 whole entry): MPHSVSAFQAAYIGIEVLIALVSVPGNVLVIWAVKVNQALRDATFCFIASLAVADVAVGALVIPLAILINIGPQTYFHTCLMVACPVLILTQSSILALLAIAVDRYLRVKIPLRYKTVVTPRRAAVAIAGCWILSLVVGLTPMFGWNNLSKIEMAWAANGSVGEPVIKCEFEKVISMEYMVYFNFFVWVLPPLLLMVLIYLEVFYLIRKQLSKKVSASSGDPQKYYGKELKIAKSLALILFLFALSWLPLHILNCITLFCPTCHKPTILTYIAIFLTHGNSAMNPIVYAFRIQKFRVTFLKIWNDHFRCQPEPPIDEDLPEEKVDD
Sequence of A2a receptors, bovine striatum (E1BKU0 1-401): as the sequence (E1BKU0 1-401) above

`CCNC(=O)[C@H]1O[C@@H](n2cnc3c(N)nc(NCCc4ccc(CCC(=O)NCCN)cc4)nc32)[C@H](O)[C@@H]1O` [APEC, 2-[(2-aminoethylamino)-carbonylethylphenylethylamino]-5'-N-ethylcarboxamidoadenosine, reference compound] displayed a total distance traveled in [1] (APEC alone 16 μg/kg, n=13) of 2277±229 cm/30 min. Moreover, in [1] (following 1 mg/kg CSC), the “ED50 for locomotor depression elicited by APEC” value was 190 µg/kg. For the same molecule, the “ED50 for locomotor depression” value in [2] was 16 µg/kg.
What is called ED50 is the dose that gives a 50% effect, or the effect in half of the subjects. Turning to `OC[C@H]1O[C@@H](n2cnc3c(NC4CCCCC4)ncnc32)[C@H](O)[C@@H]1O` [CHA, N^6 -cyclohexyladenosine, reference compound], the total distance traveled in series [1] (CHA control 100 μg/kg i.p., n=9) turned out to be 2090±438 cm/30 min. The ED50 in [1] (Mus musculus, ip, CHA, i.p., read-out: ED50 for locomotor depression) was found to be 0.1 mg/kg.
For `CCCn1c(=O)c2[nH]c(C3CCCC3)nc2n(CCC)c1=O` [CPX, 8-cyclopentyl-1,3-dipropyl-xanthine, reference compound], in [1], the “locomotor stimulation, in words” value was “minimal depressant effect on locomotor activity”.
Broadly, the Ki is the equilibrium dissociation constant of an inhibitor or competing ligand from its target. The term solubility denotes the concentration that dissolves in the medium under given conditions. Consider `Cn1c(=O)c2c(nc(/C=C/c3cccc(NC(=O)CCC(=O)O)c3)n2C)n(C)c1=O` [Compound 24, 1,3,7-Trimethyl-8-(3-succinylaminostyryl)xanthine], for which the Ki in series [3] (setting [21]) worked out at 35100 nM; in series [5] (setting [22]) it was 134 nM; in [5] (setting [23]), 143 ± 45 nM. In addition, the solubility in series [4] (0.1 m k2hpo4) was 19 mM; in series [4] (0.1 m potassium phosphate, pH 7.4), 19 mM. Also, in series [5] (Table I), the A1/A2a ratio was found to be 250.
For `Cn1c(=O)c2c(nc(/C=C/c3cccc(Cl)c3)n2C)n(C)c1=O` [Compound 28a, 1,3,7-trimethyl-8-(3-chlorostyryl) xanthine], the “increase in clockwise and anti-clockwise rotations” value in series [1] was 30-60%. The “effect on locomotor activity of concurrent administration” value in series [1] (APEC 16 μg/kg with CSC 5 mg/kg) is reported as “no effect on the locomotor activity”. Moreover, in series [1] (CSC 1 mg/kg i.p., APEC 16 μg/kg), the “reversal of APEC-elicited locomotor depression” value was “nearly completely reverse the locomotor depression”. Besides, the total distance traveled is on record as 4861±243 cm/30 min in [1] (CSC 1.0 mg/kg with CPX […], n=9); 4223±496 cm/30 min in series [1] (CSC 5 mg/kg alone, n=13); 3949±284 cm/30 min in series [1] (CSC 5 mg/kg with APEC 16 μg/kg, n=14); 2029±250 cm/30 min in series [1] (CSC 5 mg/kg with CHA, n=8); 3550±230 cm/30 min in [1] (CSC alone 1 mg/kg i.p., n=19). The “stimulation of locomotor activity over CSC alone” value in [1] (CSC 1.0 mg/kg with CPX […], p<0.001) worked out at 37%. The “increase in locomotor activity versus APEC alone” value in [1] (CSC 5 mg/kg with APEC 16 μg/kg) is listed as 73%. The “locomotor stimulation over vehicle control” value in [1] (CSC 5 mg/kg, 30 min) came to 22%. For the same molecule, in series [1] (CSC 5 mg/kg, CHA 100 μg/kg i.p.), the “effect on locomotor depression elicited by CHA” value was “no effect on locomotor depression”. In addition, the “increase in locomotor activity versus control” value in [1] (CSC 5 mg/kg, last 10 minutes of 30 min) was 56%. The “increase in average distance per move” value in series [1] (CSC with CPX) is reported as “approximately 30%”. Moreover, the “locomotor stimulation, in words” value in [1] is “no significant effect on locomotor activity”. The Behavioral stimulation result in series [1] (typical dose 5 (mg/kg, i.p.)) was “+”. Moreover, the solubility in [4] (injection vehicle) was < 1000 µg/mL.
As usually defined, the IC50 is the midpoint of a concentration-inhibition curve. Low values mean inhibition by little substance, high ones a need for much substance. By EC50 is commonly meant the midpoint of the concentration-response curve. Take `Cn1c(=O)c2c(nc(/C=C/c3cccc(N=C=S)c3)n2C)n(C)c1=O` [Compound 28e, 1,3,7-trimethyl-8-(3-isothiocyanatostyryl)xanthine]: the Ki was 20300 nM in series [3]; 20.3 µM in [6] (Ki value (A1), rat striatum, Table V footnote b); 20 µM in [6] (Ki value at A1-receptors, rat striatum); 111 nM in series [13]; 347 ± 112 nM in series [15]; 111 ± 1 nM in [5] (Ki (A2a)). In addition, the IC50 in series [6] (IC50 (A1), rat, vs [3H]PIA (1 nM)) worked out at 42.6 µM; in series [6] (IC50 at A1-receptors, rat striatum), 43 µM; in [7], 51.4 µM; in series [8] it was 63.4 µM; in [9] it was 75.6 µM; in series [13], 146 nM. Further, the concentration for half-maximal inhibition (IC50) in series [14] worked out at 516 ± 64 nM; in series [15], 413 ± 135 nM; in [16] it was 2700 nM. For the same molecule, the “loss of [3H]PIA binding” value in [10] worked out at 12±2.9%. Moreover, the “Hill coefficients for displacement of [3H]CGS 21680” value in [11] is ~1. Further, in [12] (2 μM ISC, 25° C.), the “time for inhibition of 50% of final value at 2 h” value is listed as “Approximately 3 min”. Moreover, the “regeneration of A2a-receptor binding” value in series [12] (IBMX 100 μM overnight on ISC-treated membranes) is “did not regenerate any A2a -receptor binding”. For the same molecule, in [16] (1 h, read-out: loss of specific [3H]CGS 21680 binding, preincubation with 20 μM ISC, rat), the inhibition at 20 µM was ~80%. Further, the inhibition at 2 µM in series [16] (2 h, read-out: loss of specific [3H]CGS 21680 binding at 2 h, 2 μM ISC, 25° C.) was ~55%. The results for the EC50 in series [17] and in series [18] were 8 µM and 10 µM, respectively.
For `COc1cc(/C=C/c2nc3c([nH]2)c(=O)n(C)c(=O)n3C)cc(OC)c1OC` [Compound 44a], the Ki was 2280 nM in series [3] (setting [21]), > 100 µM in series [19] and 71 nM in [20].
On to `COc1cc(/C=C/c2nc3c(c(=O)n(C)c(=O)n3C)n2C)cc(OC)c1OC` [Compound 44b, 1,3,7-trimethyl-8-(3,4,5-trimethoxy)-styryl-xanthine], for which the values for the inhibition constant Ki in series [3] (setting [21]), in [19] and in series [20] were 9200 nM, > 100 µM and 18 nM, respectively.
For `C=CCn1c(=O)c2c(nc(/C=C/c3cc(OC)c(OC)c(OC)c3)n2C)n(CC=C)c1=O` [Compound 46], the Ki was 1930 nM in series [3] (setting [21]), > 100 µM in series [19] and 15 nM in series [20].
Turning to `CCCn1c(=O)c2[nH]c(/C=C/c3ccc(OC)c(OC)c3)nc2n(CCC)c1=O` [Compound 52a], the Ki was 71 ± 11 nM in [3] (setting [21]), 1.7 µM in series [19] and 6700 nM in [20].
For `CCCn1c(=O)c2c(nc(/C=C/c3ccc(OC)c(OC)c3)n2C)n(CCC)c1=O` [Compound 52b], the values for the Ki in series [3] (setting [21]) and in series [20] were 577 ± 42 nM and 7.8 nM, respectively.
In general, solubility (kinetic) refers to solubility judged after dilution from a stock solution rather than from solid. Turning to `CCCn1c(=O)c2c(nc(/C=C/c3cc(OC)cc(OC)c3)n2C)n(CCC)c1=O` [Compound 53b, 1,3-Dipropyl-7-methyl-8-(3,5-dimethoxystyryl)xanthine], the “apparent A1 affinity versus DMSO concentration” value in [3] (0.5 and 1% DMSO) is on record as “somewhat dependent on DMSO concentration”. Moreover, the Ki in series [3] (setting [21]) is 2630 nM; in series [5] (setting [22]), 24 nM and ≤ 50 nM; in series [5] (setting [23]) it was 24 ± 6 nM. The solubility (kinetic) in series [4] (concentration above which compound did not remain dissolved) is 10 µM (≈ 4.12 µg/mL); in series [4] (theoretical concentration beyond which UV absorption decreases (supersaturation)), 20 µM (≈ 8.25 µg/mL). Moreover, in series [5], the “selectivity relative to 52b” value was 5 fold. The “apparent affinity at A2 receptors versus DMSO concentration” value in series [5] (0.5% to 6% DMSO) was “constant within the range of 0.5% to 6% DMSO”. In series [5] (Table I), the A1/A2a ratio came out at 110. In [5] (rat brain binding, this study), the A2-selectivity came to 110 fold.
In the case of `Cn1c(=O)c2c(ncn2C)n(C)c1=O` [caffeine, 1,3,7-trimethylxanthine, reference compound], in series [1] (mouse, in vivo, ip), the Behavioral stimulation entry was “+++”.

The values are drawn from US5861405A, “S-substituted 1,3,7-trialkyl-xanthine derivatives” (priority 1994, dated 1999).
